In patent US11332500B2, “Heterotandem bicyclic peptide complexes” (BicycleTx Limited, priority 2019, dated 2022):
Like-named read-outs stand apart in the source and are kept apart here. *1 amine or outer side, *2 acyl side, *3 side chain or, on linkers, in order; H or OH if unused. Where a SMILES comes first, the peptide text is derived from it. Bridges are numbered along the chain shown (N, C = ends). Roman numbers before positions name the chains, in order. [ ]: non-standard residue; d: D form. TATA = O=C(CC[*:1])N1CN(C(=O)CC[*:2])CN(C(=O)CC[*:3])C1; X1 = O=C(CCc1cn(CCOCCOCCOCCOCCOCCC(=O)[*:2])nn1)[*:1]; X2 = O=C(CCOCCOCCOCCOCCOCCn1cc(CCC(=O)[*:2])nn1)[*:1]; Dip = N[C@H](C(=O)O)C(c1ccccc1)c1ccccc1; Hyp = O=C(O)[C@@H]1C[C@@H](O)CN1; hArg = N=C(N)NCCCC[C@H](N)C(=O)O; tBuAla = CC(C)(C)C[C@H](N)C(=O)O; Cba = N[C@@H](CC1CCC1)C(=O)O; Nle = CCCC[C@H](N)C(=O)O

How the values were obtained:
CD137 = target: T1, CD137 (Homo sapiens, UniProt Q07011); assay: CD137 reporter assay co-culture with RKO tumour cells (PD-L1/CD137 heterotandems); type: cell-based; settings: Jurkat CD137 reporter cells co-cultured with RKO (PD-L1), 6 h; read-out: Fold Induction over background
T1 construct: host or cells: Jurkat reporter cells from the Promega kit, co-cultured with tumour cells (NCI-H292, PC3 or RKO)
T1 sequence (Q07011 24-255): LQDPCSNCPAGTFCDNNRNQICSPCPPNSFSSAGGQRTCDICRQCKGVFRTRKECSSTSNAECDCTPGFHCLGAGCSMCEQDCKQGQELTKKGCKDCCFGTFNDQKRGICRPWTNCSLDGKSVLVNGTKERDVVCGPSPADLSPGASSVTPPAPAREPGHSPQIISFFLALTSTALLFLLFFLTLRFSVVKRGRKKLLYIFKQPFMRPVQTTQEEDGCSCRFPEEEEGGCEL
Experimental: Culture medium, referred to as R1 media, is prepared by adding 1% FBS to RPMI-1640 (component of Promega kit CS196005). Serial dilutions of test articles in R1 are prepared in a sterile 96 well-plate. Add 25 μL per well of test articles or R1 (as a background control) to designated wells in a white cell culture plate. Tumour cells* are harvested and resuspended at a concentration of 400,000 cells/mL in R1 media. Twenty five (25) μL/well of tumour cells are added to the white cell culture plate. Jurkat cells (Promega kit CS196005, 0.5 mL) are thawed in the water bath and then added to 5 ml pre-warmed R1 media. Twenty five (25) μL/well of Jurkat cells are then added to the white cell culture plate. Incubate the cells and test articles for 6 h at 37° C., 5% CO2. At the end of 6 h, add 75 μL/well Bio-Glo™ reagent (Promega) and incubate for 10 min before reading luminescence in a plate reader (Clariostar, BMG). The fold change relative to cells alone (Jurkat cells+Cell line used in co-culture) is calculated and plotted in GraphPad Prism as log(agonist) vs response to determine EC50 (nM) and Fold Induction over background (Max).
The tumour cell type used in co-culture for EphA2 is PC3. The tumour cell type used in co-culture for PD-L1 is RKO.
A summary of the fold induction induced by PD-L1/CD137 heterotandem peptides in the CD137 reporter coculture assay with RKO cells is shown in Table 3.

[1] = Pharmacokinetics of CD137 heterotandem bicyclic peptide complexes in SD rats; settings: rat, in vivo, male SD rats, IV Inf, plasma; for clearance: read-out: Clp; for half-life: read-out: T½ (converted); for Vd: read-out: Vdss
Experimental: Male SD Rats were dosed with 2 mg/kg of each heterotandem Bicycle peptide complex formulated in 25 mM Histidine HCl, 10% sucrose pH 7. Serial bleeding (about 80 μL blood/time point) was performed via submadibular or saphenous vein at each time point. All blood samples were immediately transferred into prechilled microcentrifuge tubes containing 2 μL K2-EDTA (0.5M) as anti-coagulant and placed on wet ice. Blood samples were immediately processed for plasma by centrifugation at approximately 4° C., 3000 g. The precipitant including internal standard was immediately added into the plasma, mixed well and centrifuged at 12,000 rpm, 4° C. for 10 minutes. The supernatant was transferred into pre-labeled polypropylene microcentrifuge tubes, and then quick-frozen over dry ice. The samples were stored at […] or below as needed until analysis. 7.5 μL of the supernatant samples were directly injected for LC-MS/MS analysis using an Orbitrap Q Exactive in positive ion mode to determine the concentrations of Bicycle. Plasma concentration versus time data were analyzed by non-compartmental approaches using the Phoenix WinNonlin 6.3 software program. C0, Cl, Vdss, T½, AUC(0-last), AUC(0-inf), MRT(0-last), MRT(0-inf) and graphs of plasma concentration versus time profile were reported.

SMILES | fold induction (CD137) | clearance ([1]; 3.0 mg/kg) [mL/min/kg] | half-life ([1]; 3.0 mg/kg) [h] | Vd ([1]; 3.0 mg/kg) [L/kg] | further results
CCCC[C@@H]1NC(=O)[C@H](Cc2ccc(O)cc2)NC(=O)[C@@H]2CCCN2C(=O)[C@H](CC(=O)O)NC(=O)[C@H](C)NC(=O)[C@H](Cc2ccccc2)NC(=O)[C@@H]2CSCCC(=O)N3CN(CN(C3)C(=O)CCSC[C@@H](C(=O)N[C@@H](C)C(N)=O)NC1=O)C(=O)CCSC[C@H](NC(C)=O)C(=O)N[C@@H](CC(C)(C)C)C(=O)N1CCC[C@H]1C(=O)N[C@@H](CCC(=O)O)C(=O)N[C@H](CCCCNC(=O)CCc1cn(CCOCCOCCOCCOCCOCCC(=O)NCCCC[C@@H]3NC(=O)[C@H](CO)NC(=O)[C@@H](NC(=O)[C@H](CCCCNC(=N)N)NC(=O)[C@H](CC(=O)O)NC(C)=O)CSCCC(=O)N4CN5CN(C4)C(=O)CCSC[C@@H](C(=O)N4CCC[C@H]4C(=O)N[C@@H](CO)C(=O)N[C@@H](Cc4c[nH]cn4)C(N)=O)NC(=O)[C@H](CC(C)C)NC(=O)[C@H](Cc4c[nH]cn4)NC(=O)[C@H](CC(C)C)NC(=O)[C@H](CCCCNC(C)=O)NC(=O)[C@H](CCC(N)=O)NC(=O)[C@H](CSCCC5=O)NC(=O)[C@H](CCSC)NC(=O)[C@H]([C@@H](C)O)NC(=O)[C@H](CC(C)C)NC(=O)[C@H](Cc4c[nH]c5ccccc45)NC(=O)CNC3=O)nn1)C(=O)N1CCC[C@H]1C(=O)N[C@@H](Cc1ccc(O)cc1)C(=O)N2 [BCY12230] (I: Ac-D[hArg]CSKGWLTMCQK(Ac)LHLCPSH-NH2 / II: Ac-C[tBuAla]PE[dK]PYCFADPY[Nle]CA-NH2; linker I:3-I:11-I:17, II:1-II:8-II:15 via TATA; linker I:5-II:5 via X2) | 10 | – | – | – | –
CCCC[C@@H]1NC(=O)[C@H](Cc2ccc(O)cc2)NC(=O)[C@@H]2CCCN2C(=O)[C@H](CC(=O)O)NC(=O)[C@H](C)NC(=O)[C@H](Cc2ccccc2)NC(=O)[C@@H]2CSCCC(=O)N3CN(CN(C3)C(=O)CCSC[C@@H](C(=O)N[C@@H](C)C(N)=O)NC1=O)C(=O)CCSC[C@H](NC(C)=O)C(=O)N[C@@H](CC(C)(C)C)C(=O)N1CCC[C@H]1C(=O)N[C@@H](CCC(=O)O)C(=O)N[C@H](CCCCNC(=O)CCc1cn(CCOCCOCCOCCOCCOCCC(=O)N[C@H]3CSCCC(=O)N4CN5CN(C4)C(=O)CCSC[C@@H](C(=O)N[C@H](C)C(N)=O)NC(=O)[C@H]([C@@H](C)O)NC(=O)[C@H](Cc4c[nH]c6ccccc46)NC(=O)[C@@H](CC(=O)O)NC(=O)[C@@H]4CCCN4C(=O)[C@H](C(c4ccccc4)c4ccccc4)NC(=O)[C@H](CC(C)C)NC(=O)[C@H](CSCCC5=O)NC(=O)[C@H](CC(C)C)NC(=O)[C@@H]4CCCN4C(=O)[C@H](CC(N)=O)NC(=O)[C@H](C(C)C)NC(=O)[C@H](CC4CCC4)NC(=O)[C@@H]4C[C@@H](O)CN4C3=O)nn1)C(=O)N1CCC[C@H]1C(=O)N[C@@H](Cc1ccc(O)cc1)C(=O)N2 [BCY13040] (I: C[Hyp][Cba]VNPLCL[Dip]P[dD]WTC[dA]-NH2 / II: Ac-C[tBuAla]PE[dK]PYCFADPY[Nle]CA-NH2; linker I:1-I:8-I:15, II:1-II:8-II:15 via TATA; linker I:N-II:5 via X2) | – | 10 | 1.6 | 0.63 | –
CCCC[C@@H]1NC(=O)[C@H](Cc2ccc(O)cc2)NC(=O)[C@@H]2CCCN2C(=O)[C@H](CC(=O)O)NC(=O)[C@H](C)NC(=O)[C@H](Cc2ccccc2)NC(=O)[C@@H]2CSCCC(=O)N3CN(CN(C3)C(=O)CCSC[C@@H](C(=O)N[C@@H](C)C(N)=O)NC1=O)C(=O)CCSC[C@H](NC(C)=O)C(=O)N[C@@H](CC(C)(C)C)C(=O)N1CCC[C@H]1C(=O)N[C@@H](CCC(=O)O)C(=O)N[C@H](CCCCNC(=O)CCc1cn(CCOCCOCCOCCOCCOCCC(=O)N[C@H]3CSCCC(=O)N4CN5CN(C4)C(=O)CCSC[C@H](NC(=O)[C@H](CC(C)C)NC(=O)[C@@H]4CCCN4C(=O)[C@H](CC(N)=O)NC(=O)[C@H](C(C)C)NC(=O)[C@H](CC(C)C)NC(=O)[C@@H]4C[C@@H](O)CN4C3=O)C(=O)N[C@@H](CC(C)C)C(=O)N[C@@H](C(c3ccccc3)c3ccccc3)C(=O)N3CCC[C@H]3C(=O)N[C@H](CC(=O)O)C(=O)N[C@@H](Cc3c[nH]c4ccccc34)C(=O)N[C@@H]([C@@H](C)O)C(=O)N[C@H](C(N)=O)CSCCC5=O)nn1)C(=O)N1CCC[C@H]1C(=O)N[C@@H](Cc1ccc(O)cc1)C(=O)N2 [BCY13035] (I: Ac-C[tBuAla]PE[dK]PYCFADPY[Nle]CA-NH2 / II: C[Hyp]LVNPLCL[Dip]P[dD]WTC-NH2; linker I:1-I:8-I:15, II:1-II:8-II:15 via TATA; linker I:5-II:N via X1) | – | 11 | 1.5 | 0.63 | –
CCCC[C@@H]1NC(=O)[C@H](Cc2ccc(O)cc2)NC(=O)[C@@H]2CCCN2C(=O)[C@H](CC(=O)O)NC(=O)[C@H](C)NC(=O)[C@H](Cc2ccccc2)NC(=O)[C@@H]2CSCCC(=O)N3CN(CN(C3)C(=O)CCSC[C@@H](C(=O)N[C@@H](C)C(N)=O)NC1=O)C(=O)CCSC[C@H](NC(C)=O)C(=O)N[C@@H](CC(C)(C)C)C(=O)N1CCC[C@H]1C(=O)N[C@@H](CCC(=O)O)C(=O)N[C@H](CCCCNC(=O)CCOCCOCCOCCOCCOCCn1cc(CCC(=O)NCCCC[C@H](NC(=O)[C@@H]3CSCCC(=O)N4CN5CN(C4)C(=O)CCSC[C@H](NC(=O)[C@H](CC(=O)O)NC(=O)[C@H](CCCCNC(=N)N)NC(=O)[C@H](C)NC(C)=O)C(=O)N4C[C@H](O)C[C@H]4C(=O)N[C@@H](CC(C)C)C(=O)N[C@@H](C(C)C)C(=O)N[C@@H](CC(N)=O)C(=O)N4CCC[C@H]4C(=O)N[C@@H](CC(C)C)C(=O)N[C@@H](CSCCC5=O)C(=O)N[C@@H](CC(C)C)C(=O)N[C@@H](Cc4c[nH]cn4)C(=O)N4CCC[C@H]4C(=O)N[C@H](CC(=O)O)C(=O)N[C@@H](Cc4c[nH]c5ccccc45)C(=O)N[C@@H](CCCCNC(=N)N)C(=O)N3)C(N)=O)nn1)C(=O)N1CCC[C@H]1C(=O)N[C@@H](Cc1ccc(O)cc1)C(=O)N2 [BCY12234] (I: Ac-A[hArg]DC[Hyp]LVNPLCLHP[dD]W[hArg]CK-NH2 / II: Ac-C[tBuAla]PE[dK]PYCFADPY[Nle]CA-NH2; linker I:4-I:11-I:18, II:1-II:8-II:15 via TATA; linker I:19-II:5 via X1) | – | – | – | – | clearance ([1]; 2.0 mg/kg): 26 mL/min/kg; half-life ([1]; 2.0 mg/kg): 0.42 h; Vd ([1]; 2.0 mg/kg): 0.95 L/kg
CCCC[C@@H]1NC(=O)[C@H](Cc2ccc(O)cc2)NC(=O)[C@@H]2CCCN2C(=O)[C@H](CC(=O)O)NC(=O)[C@H](C)NC(=O)[C@H](Cc2ccccc2)NC(=O)[C@@H]2CSCCC(=O)N3CN(CN(C3)C(=O)CCSC[C@@H](C(=O)N[C@@H](C)C(N)=O)NC1=O)C(=O)CCSC[C@H](NC(C)=O)C(=O)N[C@@H](CC(C)(C)C)C(=O)N1CCC[C@H]1C(=O)N[C@@H](CCC(=O)O)C(=O)N[C@H](CCCCNC(=O)CCc1cn(CCOCCOCCOCCOCCOCCC(=O)NCCCC[C@@H]3NC(=O)[C@H](CCC(N)=O)NC(=O)[C@@H]4CSCCC(=O)N5CN(CN(C5)C(=O)CCSC[C@@H](C(=O)N5CCC[C@H]5C(=O)N[C@@H](CO)C(=O)N[C@@H](Cc5c[nH]cn5)C(N)=O)NC(=O)[C@H](CC(C)C)NC(=O)[C@H](Cc5c[nH]cn5)NC(=O)[C@H](CC(C)C)NC3=O)C(=O)CCSC[C@H](NC(=O)[C@H](CCCCNC(=N)N)NC(=O)[C@H](CC(=O)O)NC(C)=O)C(=O)N[C@@H](CO)C(=O)N[C@@H](C)C(=O)NCC(=O)N[C@@H](Cc3c[nH]c5ccccc35)C(=O)N[C@@H](CC(C)C)C(=O)N[C@@H]([C@@H](C)O)C(=O)N[C@@H](CCSC)C(=O)N4)nn1)C(=O)N1CCC[C@H]1C(=O)N[C@@H](Cc1ccc(O)cc1)C(=O)N2 [BCY12229] (I: Ac-D[hArg]CSAGWLTMCQKLHLCPSH-NH2 / II: Ac-C[tBuAla]PE[dK]PYCFADPY[Nle]CA-NH2; linker I:3-I:11-I:17, II:1-II:8-II:15 via TATA; linker I:13-II:5 via X2) | 8 | – | – | – | –
